Results from the supplement of paper PMC10307832.

Assays:
Assay in all cases: relative viability (nuclei count vs DMSO), 5 days (fraction); higher = more cells survive
NCI-H1793 = test system: NCI-H1793
In short: (§1)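 Each reported value is a median over duplicate plates. It expresses relative viability: treated-well nuclei count divided by vehicle-well nuclei count. Lung cancer cell lines in 1536-well plates were dosed by pin tool a day after seeding, alone with one drug or with a fixed anchor-drug dose plus five library-drug doses (not always all listed) in √10 steps, and nuclei were counted after 5 days.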

HCC-78 = test system: HCC-78
In short: as §1

LXF-289 = test system: LXF-289
In short: as §1

HCC-366 = test system: HCC-366
In short: as §1

LC-2-ad = test system: LC-2-ad
In short: as §1

LCLC-97TM1 = test system: LCLC-97TM1
In short: as §1

COR-L 105 = test system: COR-L 105
In short: as §1

NCI-H358 = test system: NCI-H358
In short: as §1

NCI-H1944 = test system: NCI-H1944
In short: as §1

NCI-H2085 = test system: NCI-H2085
In short: as §1

NCI-H1915 = test system: NCI-H1915
In short: as §1

NCI-H1755 = test system: NCI-H1755
In short: as §1

HOP-62 = test system: HOP-62
In short: as §1

LU99A = test system: LU99A
In short: as §1

NCI-H1792 = test system: NCI-H1792
In short: as §1

UMC-11 = test system: UMC-11
In short: as §1

NCI-H2170 = test system: NCI-H2170
In short: as §1

NCI-H1975 = test system: NCI-H1975
In short: as §1

SK-LU-1 = test system: SK-LU-1
In short: as §1

EPLC-272H = test system: EPLC-272H
In short: as §1

NCI-H460 = test system: NCI-H460
In short: as §1

A-427 = test system: A-427
In short: as §1

**Q.** Which results are given for `NC(=O)Nc1cc(-c2cccc(F)c2)sc1C(=O)N[C@H]1CCCNC1` [AZD7762] + Cc1nc(NC(=O)N2CCC[C@H]2C(N)=O)sc1-c1ccnc(C(C)(C)C(F)(F)F)c1 [Alpelisib] (partner 2 µM)?
**A.** relative viability (NCI-H1793; first compound 0.01 µM): 0.835; relative viability (NCI-H1793; first compound 0.03162 µM): 0.795; relative viability (NCI-H1793; first compound 0.1 µM): 0.627; relative viability (NCI-H1793; first compound 0.3162 µM): 0.854; relative viability (NCI-H1793; first compound 1 µM): 0.524; relative viability (HCC-78; first compound 0.01 µM): 0.371; relative viability (HCC-78; first compound 0.03162 µM): 0.419; relative viability (HCC-78; first compound 0.1 µM): 0.361; relative viability (HCC-78; first compound 0.3162 µM): 0.394; relative viability (HCC-78; first compound 1 µM): 0.287; relative viability (LXF-289; first compound 0.01 µM): 1.01; relative viability (LXF-289; first compound 0.03162 µM): 1.07; relative viability (LXF-289; first compound 0.1 µM): 1.12; relative viability (LXF-289; first compound 0.3162 µM): 1.04; relative viability (LXF-289; first compound 1 µM): 1.14; relative viability (HCC-366; first compound 0.01 µM): 0.45; relative viability (HCC-366; first compound 0.03162 µM): 0.521; relative viability (HCC-366; first compound 0.1 µM): 0.229; relative viability (HCC-366; first compound 0.3162 µM): 0.189; relative viability (HCC-366; first compound 1 µM): 0.134; relative viability (LC-2-ad; first compound 0.01 µM): 0.979; relative viability (LC-2-ad; first compound 0.03162 µM): 0.897; relative viability (LC-2-ad; first compound 0.1 µM): 0.795; relative viability (LC-2-ad; first compound 0.3162 µM): 0.612; relative viability (LC-2-ad; first compound 1 µM): 0.433; relative viability (LCLC-97TM1; first compound 0.01 µM): 0.292; relative viability (LCLC-97TM1; first compound 0.03162 µM): 0.272; relative viability (LCLC-97TM1; first compound 0.1 µM): 0.314; relative viability (LCLC-97TM1; first compound 0.3162 µM): 0.278; relative viability (LCLC-97TM1; first compound 1 µM): 0.298; relative viability (COR-L 105; first compound 0.01 µM): 1.2; relative viability (COR-L 105; first compound 0.03162 µM): 1.03; relative viability (COR-L 105; first compound 0.1 µM): 0.92; relative viability (COR-L 105; first compound 0.3162 µM): 0.847; relative viability (COR-L 105; first compound 1 µM): 0.461; relative viability (NCI-H358; first compound 0.01 µM): 0.819; relative viability (NCI-H358; first compound 0.03162 µM): 0.964; relative viability (NCI-H358; first compound 0.1 µM): 0.837; relative viability (NCI-H358; first compound 0.3162 µM): 0.629; relative viability (NCI-H358; first compound 1 µM): 0.33; relative viability (NCI-H1944; first compound 0.01 µM): 0.855; relative viability (NCI-H1944; first compound 0.03162 µM): 1.03; relative viability (NCI-H1944; first compound 0.1 µM): 1.01; relative viability (NCI-H1944; first compound 0.3162 µM): 1.08; relative viability (NCI-H1944; first compound 1 µM): 0.893; relative viability (NCI-H2085; first compound 0.01 µM): 1.06; relative viability (NCI-H2085; first compound 0.03162 µM): 0.928; relative viability (NCI-H2085; first compound 0.1 µM): 1.1; relative viability (NCI-H2085; first compound 0.3162 µM): 1.06; relative viability (NCI-H2085; first compound 1 µM): 0.782; relative viability (NCI-H1915; first compound 0.01 µM): 1.06; relative viability (NCI-H1915; first compound 0.03162 µM): 1.12; relative viability (NCI-H1915; first compound 0.1 µM): 1.09; relative viability (NCI-H1915; first compound 0.3162 µM): 1.09; relative viability (NCI-H1915; first compound 1 µM): 0.997; relative viability (NCI-H1755; first compound 0.01 µM): 0.957; relative viability (NCI-H1755; first compound 0.03162 µM): 0.924; relative viability (NCI-H1755; first compound 0.1 µM): 0.999; relative viability (NCI-H1755; first compound 0.3162 µM): 0.907; relative viability (NCI-H1755; first compound 1 µM): 0.547; relative viability (HOP-62; first compound 0.01 µM): 0.918; relative viability (HOP-62; first compound 0.03162 µM): 1.22; relative viability (HOP-62; first compound 0.1 µM): 0.836; relative viability (HOP-62; first compound 0.3162 µM): 1.04; relative viability (HOP-62; first compound 1 µM): 1.36; relative viability (LU99A; first compound 0.01 µM): 0.575; relative viability (LU99A; first compound 0.03162 µM): 0.568; relative viability (LU99A; first compound 0.1 µM): 0.543; relative viability (LU99A; first compound 0.3162 µM): 0.514; relative viability (LU99A; first compound 1 µM): 0.329; relative viability (NCI-H1792; first compound 0.01 µM): 0.826; relative viability (NCI-H1792; first compound 0.03162 µM): 0.781; relative viability (NCI-H1792; first compound 0.1 µM): 0.727; relative viability (NCI-H1792; first compound 0.3162 µM): 0.751; relative viability (NCI-H1792; first compound 1 µM): 0.9; relative viability (UMC-11; first compound 0.01 µM): 1.03; relative viability (UMC-11; first compound 0.03162 µM): 0.962; relative viability (UMC-11; first compound 0.1 µM): 1.06; relative viability (UMC-11; first compound 0.3162 µM): 1.03; relative viability (UMC-11; first compound 1 µM): 0.653; relative viability (NCI-H2170; first compound 0.01 µM): 0.843; relative viability (NCI-H2170; first compound 0.03162 µM): 0.75; relative viability (NCI-H2170; first compound 0.1 µM): 0.727; relative viability (NCI-H2170; first compound 0.3162 µM): 0.797; relative viability (NCI-H2170; first compound 1 µM): 0.776; relative viability (NCI-H1975; first compound 0.01 µM): 0.678; relative viability (NCI-H1975; first compound 0.03162 µM): 0.585; relative viability (NCI-H1975; first compound 0.1 µM): 0.579; relative viability (NCI-H1975; first compound 0.3162 µM): 0.436; relative viability (NCI-H1975; first compound 1 µM): 0.322; relative viability (SK-LU-1; first compound 0.01 µM): 1.14; relative viability (SK-LU-1; first compound 0.03162 µM): 0.72; relative viability (SK-LU-1; first compound 0.1 µM): 0.329; relative viability (SK-LU-1; first compound 0.3162 µM): 0.207; relative viability (SK-LU-1; first compound 1 µM): 0.236; relative viability (EPLC-272H; first compound 0.01 µM): 1.07; relative viability (EPLC-272H; first compound 0.03162 µM): 1.1; relative viability (EPLC-272H; first compound 0.1 µM): 1.13; relative viability (EPLC-272H; first compound 0.3162 µM): 0.992; relative viability (EPLC-272H; first compound 1 µM): 0.674; relative viability (NCI-H460; first compound 0.01 µM): 0.604; relative viability (NCI-H460; first compound 0.03162 µM): 0.498; relative viability (NCI-H460; first compound 0.1 µM): 0.54; relative viability (NCI-H460; first compound 0.3162 µM): 0.293; relative viability (NCI-H460; first compound 1 µM): 0.0196; relative viability (A-427; first compound 0.01 µM): 1.07; relative viability (A-427; first compound 0.03162 µM): 1.14; relative viability (A-427; first compound 0.1 µM): 1.1; relative viability (A-427; first compound 0.3162 µM): 1.1; relative viability (A-427; first compound 1 µM): 0.864
